Where no end group is shown, it is not given here. [ ]: non-standard residue; d: D form. Aib = CC(C)(N)C(=O)O
How the values were obtained:
[1] = test system: SK-OV-3 cells; experiment: SK-OV-3 growth inhibition, 72 hr, MTT assay; assay type: cell-based, human; conditions: for SK-OV-3 growth inhibition, comparison of peptides: tested as C-m-HDLs loaded with conjugate 20 made with the named peptide, FIG. 13; for SK-OV-3 growth inhibition, comparison of anchor lipids: conjugates tested as C-m-HDLs prepared by solvent lyophilization, FIGS. 12A and 12B
Procedure: In this Example, the mole portions of components in the C-m-HDLs prepared by solvent lyophilization were POPC: egg SM: peptide: conjugate 5.6:2.4:2:1. 20 mM stock solutions of POPC and of egg SM were prepared in tert-butyl alcohol: water (8:2 v/v). Peptide SEQ ID NO: 25 (acetate counter ion) was dissolved in tert-butyl alcohol/water/acetic acid (80:20:7 v/v) to obtain a 10 mM peptide solution. Conjugates 20 and 30 were separately dissolved in tert-butyl alcohol: water (95:5) to a final concentration of 10 mM.
For C-m-HDL preparation, 2.8 mL of 20 mM POPC, 1.2 mL of 20 mM egg SM, 2 mL of 10 mM peptide, 1 mL of 10 mM conjugate, and 0.3 mL acetic acid were combined in a 20 mL glass vial. The combined solution was frozen at ≥−70° C. for ≥1 hr. The frozen vial was placed in the chamber of a lyophilizer set at a shelf temperature of −20° C. A vacuum between 100 to 150 mTorr was applied for >20 hr. The shelf temperature was raised to −10° C. and the vacuum was continued for >15 hr. The shelf temperature was then raised to 20° C. and the vacuum continued for 24 hr. The dried cake was dissolved in PBS to obtain C-m-HDLs. The uniformity of the C-m-HDLs was evaluated by SEC (Acclaim™ SEC-1000, 300 mm×4.6 mm column, 0.3 mL/min PBS mobile phase, 210 nm and 280 nm UV detection) and by dynamic light scattering. The phospholipid content was established with a commercially available, enzyme-based, colorimetric assay kit. Peptide and conjugate content were established by HPLC.
Two C-m-HDLs were prepared as above, containing either Conjugate 20 or Conjugate 30 were then tested for their growth inhibition activity against SK-OV-3 cells (ATCC). SK-OV-3 cells were grown in McCoy's-5A media supplemented with 10% fetal bovine serum and maintained in a 37° C. incubator under a 5% CO2 atmosphere. To assess growth inhibition, the growth medium of cells grown in 96-well plates was supplemented with various concentrations of C-m-HDL (cmpd 20), C-m-HDL (compd 30) or paclitaxel from a DMSO stock solution. The 96-well plates were incubated for 72 hr. The relative amount of live cells in each of the wells after 72 hr was determined with the MTT assay. The concentrations of test articles causing 50% growth inhibition (GIso) were obtained by performing a non-linear fit of the MTT results to a 4-parmeter logistic function. The results are plotted in FIG. 11.

[2] = test system: Sprague-Dawley rats; experiment: Adrenal gland functionality in rats after dosing (ACTH challenge, plasma corticosterone); assay type: in vivo; conditions: 4 mg/kg on Days 1, 4 and 7; ACTH challenge Day 11; paclitaxel intraperitoneal, C-m-HDL intravenous; FIG. 10
Procedure: A paclitaxel stock solution was prepared by dissolving paclitaxel in 1:1 (v/v) Cremophor EL/ethanol (95%) to a final paclitaxel concentration of […] (C-E paclitaxel solution). Next, a paclitaxel solution suitable for dosing was prepared by combining one volume of the C-E paclitaxel solution with 3 volumes of 0.9 weight % NaCl. This solution is designated as “Control”.
C-m-HDL (cmpd 20) was prepared as per Example 12.
The in vivo study was conducted in rats in accordance with the current guidelines for animal welfare (Guide for the Care and Use of Laboratory Animals, 8th Ed., 2011). The procedures used in the study were reviewed and approved by the Institutional Animal Care and Use Committee.
Eighteen (18) female Sprague-Dawley rats were randomly assigned to 3 groups of 6 animals each. All animals were lightly anesthetized using isoflurane and dosed intraperitoneally on Days 1, 4, and 7 with paclitaxel at 4 mg/kg in a dose volume of 1.5 mL/kg, or intravenously with C-m-HDL (cmpd 20) at 4 mg/kg or vehicle (saline) via the tail vein using a dose volume of 1.5 mL/kg. Group 1 received saline, Group 2 received paclitaxel, and Group 3 received C-m-HDL (cmpd 20). On Day 11, rats in each group were lightly anesthetized using isoflurane within their home cage to minimize potential stress responses. […] Plasma corticosterone content was determined with a commercially available ELISA kit.

In the case of “DVFQKLXELFNQLXEKWKQV (DVFQKL[Aib]ELFNQL[Aib]EKWKQV) [SEQ ID NO: 35, amphiphilic, alpha-helical peptide used to prepare C-m-HDLs]”, the “SK-OV-3 growth inhibition, comparison of peptides” value [1] is reported as “substantially the same”.

For `CC(=O)O[C@H]1C(=O)[C@@]2(C)[C@H]([C@H](OC(=O)c3ccccc3)[C@]3(O)C[C@H](OC(=O)[C@H](O)[C@@H](NC(=O)c4ccccc4)c4ccccc4)C(C)=C1C3(C)C)[C@]1(OC(C)=O)CO[C@@H]1C[C@@H]2O` [paclitaxel], the “adrenal function / adrenal toxicity” value [2] was “lack of adrenal toxicity”.

For “DVFQKLXELFNQLLEKWKQV (DVFQKL[Aib]ELFNQLLEKWKQV) [SEQ ID NO: 25, amphiphilic, alpha-helical peptide used to prepare C-m-HDLs]”, the “SK-OV-3 growth inhibition, comparison of peptides” value [1] was “substantially the same”.

With `CC(=O)O[C@H]1C(=O)[C@@]2(C)[C@H]([C@H](OC(=O)c3ccccc3)[C@]3(O)C[C@H](OC(=O)[C@H](OC(=O)Oc4cc(C)c5c(c4)CC[C@@](C)(CC/C=C(\C)CC/C=C(\C)CCC=C(C)C)O5)[C@@H](NC(=O)c4ccccc4)c4ccccc4)C(C)=C1C3(C)C)[C@]1(OC(C)=O)CO[C@@H]1C[C@@H]2O` [Conjugate 20, paclitaxel-delta-tocotrienol conjugate] the “SK-OV-3 growth inhibition, comparison of anchor lipids” value [1] was “equivalent results” and the “SK-OV-3 growth inhibition, comparison of anchor lipids” value ([1]; listed as paclitaxel-delta-tocotrienol) was “essentially equivalent”.
